Experimental data from patent US20220324835A1 (Nurix Therapeutics, Inc., priority 2018, published 2022).
Read-outs that look alike come from different tables or passages of the source.

Key:
[1] = test system: T-cell; assay: IL-2 secretion from T-cells co-stimulated with anti-CD3 and anti-CD28 antibody (Biological Example 2); format: cell-based, human; details: Homo sapiens, T-cell, fold change over baseline, primary human total T-cells, read-out: IL-2 secretion Anti-CD3/Anti-CD28 stimulation; for fold induction at 0.3 µM: 0.3 μM Cbl-b inhibitor; for fold induction at 1 µM: 1 μM Cbl-b inhibitor; for fold induction at 4 µM: 4 μM Cbl-b inhibitor
Procedure, shortened: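 Values are fold-change over baseline: readings (IL-2 release, CD25 staining) from inhibitor-treated T-cells divided against untreated cells […]. No detailed procedure stated.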

[2] = test system: T-cell; assay: CD25 cell surface staining on T-cells stimulated with anti-CD3 antibody alone (Biological Example 2); format: cell-based, human; details: T-cell, fold change over baseline, primary human total T-cells, read-out: CD25 staining Anti-CD3 stimulation; for fold induction at 1 µM: 1 μM Cbl-b inhibitor; for fold induction at 8 µM: 8 μM Cbl-b inhibitor
[3] = target: Cbl-b (Homo sapiens, UniProt Q13191); assay: Cbl-b activity assay (Cbl-b inhibition assay), TR-FRET of Cbl-b interaction with UbcH5B-Ub; format: biochemical
Chain of Cbl-b (Q13191 36-427): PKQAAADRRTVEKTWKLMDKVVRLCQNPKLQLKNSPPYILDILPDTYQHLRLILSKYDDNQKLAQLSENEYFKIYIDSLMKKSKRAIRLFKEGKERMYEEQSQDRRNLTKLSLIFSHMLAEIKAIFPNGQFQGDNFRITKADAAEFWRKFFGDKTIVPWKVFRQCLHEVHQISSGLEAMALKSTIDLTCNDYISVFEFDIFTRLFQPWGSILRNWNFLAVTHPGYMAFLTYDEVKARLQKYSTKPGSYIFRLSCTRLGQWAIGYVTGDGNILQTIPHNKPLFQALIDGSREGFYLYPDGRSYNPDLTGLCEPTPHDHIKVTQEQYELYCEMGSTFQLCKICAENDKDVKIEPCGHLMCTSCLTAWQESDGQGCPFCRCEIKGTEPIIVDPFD
Procedure, shortened: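 Compound-treated Cbl-b was incubated 1.5 h with Src kinase (60 nM final; 30 nM for asterisked values, which also used 50 mM instead of 100 mM NaCl), 1 mM ATP and 5 mM MgCl2. Binding to fluorescent Ub-loaded UbcH5B (C85K mutant) was then read by TR-FRET after 1 h more.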

[4] = target: Cbl-b (residues 36-427) (Homo sapiens, UniProt Q13191); assay: Cbl-b binding assay (SPR, Biacore T200); details: 20° C., 1:1 binding model
Chain of Cbl-b (residues 36-427) (Q13191 36-427): as above
Procedure, shortened: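 NeutrAvidin capture chip, 20° C; 50 s injections at 50 μl/min, 90-180 s dissociation; 0.3 M NaCl regeneration. Asterisked column: 50 mM NaCl buffer and 30 nM Src kinase in place of 100 mM NaCl and 60 nM Src kinase. 1:1 fit.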

[5] = * assay buffer containing 50 mM NaCl instead of 100 mM NaCl and 30 nM Src kinase instead of 60 nM, read-out: Cbl-b activity IC50 (μM)*
[6] = assay buffer with 100 mM NaCl, 60 nM Src kinase, read-out: Cbl-b activity IC50

| Structure (SMILES) | fold induction at 0.3 µM [1] | fold induction at 1 µM [1] | fold induction at 4 µM [1] | fold induction at 1 µM [2] | fold induction at 8 µM [2] | IC50 [3, 5] [µM] | IC50 [3, 6] [µM] | Kd [4] [nM] |
| --- | --- | --- | --- | --- | --- | --- | --- | --- |
| Cc1ccc(C(=O)Nc2cccc([C@H](C)Sc3nncn3C)c2)nc1C [Compound 35, (S)-5,6-Dimethyl-N-(3-(1-((4-methyl-4H-1,2,4-triazol-3-yl)thio)ethyl)phenyl)picolinamide] | 1.01 to 2.5 | 2.51 to 5 | 2.51 to 5 | < 0.6 | 0.601 to 0.8 | 0.301 to 1 | 0.301 to 1 | 3000 to 10000 |
| C[C@H](Sc1nncn1C)c1cc(F)cc(N2Cc3c(cccc3C(F)(F)F)C2=O)c1 [Compound 168a, 2-[3-fluoro-5-[(1S)-1-[(4-methyl-1,2,4-triazol-3-yl)sulfanyl]ethyl]phenyl]-4-(trifluoromethyl)isoindolin-1-one] | < 1 | 1.01 to 2.5 | < 1 | < 0.6 | 0.801 to 1 | – | 0.1 to 0.3 | 301 to 1000 |
| C[C@H](Sc1nncn1C)c1cccc(N2Cc3c(ccnc3Cl)C2=O)c1 [Compound 167, 4-chloro-2-[3-[(1S)-1-[(4-methyl-1,2,4-triazol-3-yl)sulfanyl]ethyl]phenyl]-3H-pyrrolo[3,4-c]pyridin-1-one] | 1.01 to 2.5 | < 1 | 2.51 to 5 | < 0.6 | 0.601 to 0.8 | – | 0.301 to 1 | 301 to 1000 |
| C[C@H](Sc1nncn1C)c1cccc(NC(=O)c2cncc(C(F)(F)F)n2)c1 [Compound 77, N-[3-[(1S)-1-[(4-methyl-1,2,4-triazol-3-yl)sulfanyl]ethyl]phenyl]-6-(trifluoromethyl)pyrazine-2-carboxamide] | < 1 | 1.01 to 2.5 | 1.01 to 2.5 | < 0.6 | 0.601 to 0.8 | – | 0.301 to 1 | 1000 to 3000 |
| Cc1nc2cc([C@H](C)Sc3nncn3C)cc(NC(=O)c3cccc(C(F)(F)F)n3)c2o1 [Compound 130a, (S)-N-(2-methyl-5-(1-((4-methyl-4H-1,2,4-triazol-3-yl)thio)ethyl)benzo[d]oxazol-7-yl)-6-(trifluoromethyl)picolinamide] | 2.51 to 5 | 5 to 7.5 | > 7.5 | 0.601 to 0.8 | > 1 | – | 0.301 to 1 | 301 to 1000 |
| CC(C)c1cccc(C(=O)Nc2cccc([C@H](C)Sc3nncn3C)c2)n1 [Compound 33, (S)-6-Isopropyl-N-(3-(1-((4-methyl-4H-1,2,4-triazol-3-yl)thio)ethyl)phenyl)picolinamide] | 2.51 to 5 | 2.51 to 5 | > 7.5 | < 0.6 | 0.801 to 1 | 0.301 to 1 | 0.1 to 0.3 | 301 to 1000 |
| Cc1cc(C(=O)Nc2cc([C@H](C)Sc3nncn3C)ccn2)nc(C(F)(F)F)c1 [Compound 103, (S)-4-methyl-N-(4-(1-((4-methyl-4H-1,2,4-triazol-3-yl)thio)ethyl)pyridin-2-yl)-6-(trifluoromethyl)picolinamide] | 1.01 to 2.5 | 1.01 to 2.5 | 1.01 to 2.5 | < 0.6 | 0.801 to 1 | – | 0.301 to 1 | 1000 to 3000 |
| COc1nc(C(=O)Nc2cccc([C@H](C)Sc3nncn3C)c2)cc2ccccc12 [Compound 62, (S)-1-methoxy-N-(3-(1-((4-methyl-4H-1,2,4-triazol-3-yl)thio)ethyl)phenyl)isoquinoline-3-carboxamide] | 2.51 to 5 | 5 to 7.5 | > 7.5 | < 0.6 | 0.801 to 1 | – | 0.1 to 0.3 | 301 to 1000 |
| Cc1cc(C(=O)Nc2cccc([C@H](C)Sc3nncn3C)c2)nc2ccccc12 [Compound 30, (S)-4-Methyl-N-(3-(1-((4-methyl-4H-1,2,4-triazol-3-yl)thio)ethyl)phenyl)quinoline-2-carboxamide] | 1.01 to 2.5 | 1.01 to 2.5 | 2.51 to 5 | 0.601 to 0.8 | 0.801 to 1 | 0.301 to 1 | 0.301 to 1 | 1000 to 3000 |
